Data on 5 molecules can be found in patent US10723744B2, “Transplantation therapies” (Aphios Corporation, priority 2007, dated 2020).

Data set [1] deals with HMECs. It counts as cell-based, human. How it is done: (§1) At confluency HMECs were treated for 1 h at 37° C. with Bryostatin-1 (10 nM, 100 nM) in MCDB-131 media or MCDB-131 media alone. Inserts were washed three times with Hank's Balanced Salt Solution (HBSS) (to eliminate drug effects on the neutrophils) and placed in a new plate containing either 500 μL 100 nM LTB4, or HBSS alone for control. 500 μL HBSS was then added to the top well and spiked with 500,000 neutrophils. For TNF-α experiments, HMECs were left in 20 ng/ml TNF-α in MCDB-131 for 24 h TNF-α was removed and HMECs washed three times. HMECs were treated for 1 h with Bryostatin-1 in endothelial growth medium (EGM) (10 nM, 100 nM). The drug was removed and cells were washed three times. 500 μL HBSS was added to both upper and lower chambers and spiked with 500,000 neutrophils. Neutrophils were allowed to migrate for 3 h at 37° C. Migration was stopped by removing the inserts and migration was measured using the myeloperoxidase (MPO) assay.
(§2) Neutrophil migration was measured using myeloperoxidase (MPO) analysis. Cell culture inserts were first removed and plates were spun at 1,500 RPM for 5 min. The supernatant was removed, and MPO activity was measured using TMB/peroxide as chromogen. The reaction was stopped with sulfuric acid and absorbance was read at 450 nm using a microplate reader. All experiments were performed n=6. Data was expressed as “% neutrophil migration”, which allowed cumulative statistical analysis to be done and account for unpreventable batch-to-batch variations.

The subject of data set [2] is HMECs. The data set is described as follows: LTB4 induced neutrophil migration across HMEC monolayers (transwell, MPO assay). The note with it: 100 nM LTB4. In kind it is cell-based, human. How it is done:
as §1, §2
(§3) Confluent HMEC monolayers were plated on 48-well plates for adhesion studies, transwells for migration studies, and pretreated with a variety of pharmacological inhibitors and activators for 1 hour. Monolayers were washed three times with HBSS to remove all drug effects on the endothelium. To initiate migration, 100 nM LTB4 was added to the lower compartment and 500,000 neutrophils were added to the upper compartment and allowed to migrate for 3 h. For adhesion assays, LTB4 was added along with 500,000 neutrophils and allowed to adhere for 1 h (time of max. adhesion as determined in FIG. 1). […] The data are shown as % change in migration and adhesion as assessed by MPO assay. All values are expressed as means±SE. Data were analyzed using a one-way ANOVA with Bonferroni corrections for multiple comparisons. Probability (p) values of <0.05 were considered significant. ***p<0.001 vs. LTB4; **p<0.01 vs. LTB4; **p<0.05 vs. LTB4; n=4 for all experiments.

Data set [3] relates to HUVECs. Put plainly: Neutrophil TEM restoration studies with PKC inhibitors. The note with it: HUVEC; for restoration of PMN TEM in response to LTB4 by PKC inhibitors (reversal of Bryostatin-1 protection): inhibitor pretreatment (Go-6983, Go-6976: 1, 10, 100 nM), then 100 nM Bryostatin-1. It counts as cell-based, human. How it is done: (§4) HUVECs were pretreated with Go-6983 (1, 10, 100 nM), or Go-6976 (1, 10, 100 nM) for 30 minutes, then spiked with 100 nM Bryostatin-1 for 1 hour. HUVECs previously nucleofected with PKC-δ, -ε, or control siRNA were just treated in Bryostatin-1 for 1 hour. HUVECs were washed three times and placed in a new plate containing either 500 μL 100 nM LTB4, or HBSS alone for control. Neutrophils were allowed to migrate for 3 h at 37° C. Migration was stopped by removing the inserts and migration was measured using the MPO assay.
as §2

Data set [4] has as its system PKC-ε siRNA nucleofected HUVEC. Put plainly: LTB4 induced neutrophil migration across PKC-ε siRNA nucleofected HUVEC. In kind it is cell-based, human. Particulars: 1 hour pretreatment. How it is done: as §4, §2
(§5) Optimum nucleofection parameters were determined using nucleofection of a control vector pmaxGFP. Using fluorescence microscopy and flow cytometry, 2 μg vector/500,000 cells nucleofected yielded the highest nucleofection (data not shown). HUVECs were grown to 70% confluency, trypsinized, and then counted. […]

A further data set has as its system HMEC monolayers. Put plainly: LTB4 induced neutrophil adhesion to the endothelial monolayer. Particulars: data not shown. In kind it is cell-based, human. As to the method:
as §3

Data set [5] has as its system HUVECs. Put plainly: Time course of protection against LTB4 induced PMN TEM after 1 h pretreatment, HUVECs. In kind it is cell-based, human. Particulars: single 1 h 100 nM pretreatment. As to the method:
(§6) At confluency, HUVECs were treated for 1 h at 37° C. with Bryostatin-1 (10 nM, 100 nM) in EGM or EGM alone. Inserts were washed three times with HBSS (to reduce drug effects on the neutrophils) and migration assays were ran at t=0, 24, or 48 h. After time elapsed, HUVECs were placed in a new plate containing either 500 μL 100 nM LTB4 or HBSS alone for control. 500 μL HBSS was then added to the top well and spiked with 500,000 neutrophils. Neutrophils were allowed to migrate for 3 h at 37° C. Migration was stopped by removing the inserts and migration was measured using the MPO assay.
as §2

The subject of another data set is HMEC. The data set is described as follows: Alamar blue endothelial viability assay, HMEC. In kind it is cell-based, human. Particulars: single 1 h 100 nM treatment; time points 1, 24, 48 h. As to the method:
(§7) The Alamar blue assay was used to determine endothelial viability after pharmacological intervention. Alamar blue contains a REDOX indicator that results in a color change upon chemical reduction by cellular metabolic activity. Endothelial cells were treated with Bryostatin-1 (100 nM) for 1 h and washed three times with HBSS. Alamar blue (10%) in media was added for 2.5 h at T=0, 24, or 48 hours after drug treatment and the ratio of absorbances (570-600 nm) was measured to determine metabolic activity.
Background: The colour change of resazurin is a common sign of viable cells or microbes.

Another data set has as its system HUVEC. The data set is described as follows: Alamar blue endothelial viability assay, HUVEC. Particulars: single 1 h 100 nM treatment; time points 1, 24, 48 h (PMA: except 48 h). It counts as cell-based, human. How it is done:
as §7

In data set [6] the test system is HMECs. The data set is described as follows: Time course of protection against LTB4 induced PMN TEM after 1 h pretreatment, HMECs. In kind it is cell-based, human. The note with it: for time after pretreatment for which reduction in LTB4 induced migration is maintained: single 1 h 100 nM pretreatment. How it is done:
FIG. 6 graphically depicts protection against LTB4 induced PMN TEM with PMA up to 48 h after pretreatment. HMECs were pretreated for 1 h with PMA and washed with HBSS three times to remove PMA prior to replacement of culture medium. Neutrophil migration studies were then performed at 0, 24, or 48 hours. Migration was stimulated by adding 500,000 neutrophils to the top well and 100 nM LTB4 to the lower well at 0, 24, and 48 hours after PMA pretreatment. […] PMA (100 nM, (10^−7M) reduced LTB4 induced migration up to 48 hours after 1 h of endothelial-specific pretreatment (***p<0.001).
Referring now to FIG. 7, FIG. 7 graphically depicts protection from LTB4 induced PMN TEM with Bryostatin-1 up to 48 hours after pretreatment. HMECs were pretreated for 1 h with Bryostatin-1 and washed with HBSS three times to remove Bryostatin-1 prior to replacement of culture medium. Neutrophil migration studies were then performed at 0, 24, or 48 hours. Migration was stimulated by adding 500,000 neutrophils to the top well and 100 nM LTB4 to the lower well at 0, 24, and 48 hours after Bryostatin-1 pretreatment. […] Bryostatin-1 (100 nM) reduced LTB4 induced migration up to 48 hours after 1 hour endothelial pretreatment (***p<0.001).
as §6, §2

Another data set has as its system T84 intestinal epithelia. Particulars: cited from earlier work.
For data set [7] the following is noted: cited from earlier work.
Data set [8] relates to PKC-δ siRNA nucleofected HUVEC. The data set is described as follows: LTB4 induced neutrophil migration across PKC-δ siRNA nucleofected HUVEC. It counts as cell-based, human. The note with it: 100 nM, 1 hour. As to the method:
as §4, §2, §5

Entries after “also recorded” stand apart in the source; their conditions may differ.

In the case of `CCC/C=C/C=C/C(=O)O[C@H]1/C(=C/C(=O)OC)C[C@H]2C[C@H]([C@@H](C)O)OC(=O)C[C@H](O)C[C@@H]3C[C@H](OC(C)=O)C(C)(C)[C@](O)(C[C@@H]4C/C(=C/C(=O)OC)C[C@H](/C=C/C(C)(C)[C@]1(O)O2)O4)O3` [Bryostatin-1], in the data set with HMECs [1] (24 h TNF-α pretreatment and 100 nM LTB4 gradient, data not shown), the “migration induced by a combination of TNF-α pretreatment and LTB4 gradient” value was “reduced migration”. Moreover, the “TNF-α induced neutrophil TEM (Type II migration)” value in the data set on HMECs [1] (HMECs, 24 h TNF-α 10 or 20 ng/ml, 1 hour pretreatment with 100 nM) is “attenuated Type II migration; also recorded: totally attenuated”. In addition, the “LTB4 induced neutrophil migration” value was “reduced LTB4 induced migration in a dose dependent manner” in the data set on HMECs [2] (HMECs on transwells, 1 h pretreatment 100 nM or 10 nM (PMA: 100, 10 or 1 nM), 3 h) and “reversed; also recorded: significantly suppressed LTB4 induced migration” in the data set on HUVECs [3] (100 nM Bryostatin-1, 1 hour, 100 nM LTB4, 3 h). In the data set on HMECs [2] (HMECs, 1 h pretreatment at 1 nM), the “LTB4 induced neutrophil migration (PMN TEM)” value was “did not reduce PMN TEM”. Also, the “LTB4 induced neutrophil TEM” value with HMECs [2] (HMECs, 1 h pretreatment, higher doses (100 nM)) is given as “attenuated neutrophil TEM to levels below that of basal migration”. For the same molecule, the “LTB4 induced neutrophil migration after pretreatment, PKC-ε knocked down” value in data set [4] is “did not restore LTB4 induced migration; also recorded: still suppresses migration”. In the data set with HMEC monolayers, the “LTB4 induced adhesion to the endothelial monolayer” value is given as “Neither PMA, nor Bryostatin-1 reduced LTB4 induced adhesion”. Further, the “time after pretreatment for which reduction in LTB4 induced migration is maintained” value with HUVECs [5] is reported as 48 h; in the data set with HMECs [6], “at least 48 h”; with HMECs [6] (listed as Bryostatin), 48 h. The HMEC viability result in the data set on HMEC is reported as “no effect”. In addition, the HUVEC viability result with HUVEC is on record as “no effect”. For the same molecule, in the data set with HMECs [6] (100 nM, 1 h pretreatment, washed, tested at 0, 24, 48 hours), the “time after pretreatment up to which LTB4 induced migration is reduced” value is listed as “up to 48 hours”. Besides, the barrier function entry in the data set on T84 intestinal epithelia is “enhances barrier function”. The “barrier loss induced by TNF-α” value in the data set with T84 intestinal epithelia is listed as “inhibits barrier loss”. The “cardiovascular disturbances or edema” value in data set [7] (Phase II cancer trials) is “no cardiovascular disturbances or evidence of edema have been observed”. Further, the “major side effects associated with use” value in data set [7] (Phase II cancer trials) is “myalgias, nausea, and vomiting”. Besides, the adverse effects entry in data set [7] (healthy subjects and cancer patients, dosing ranges higher than for 100 ng/ml plasma level) is “no adverse effects”. The “LTB4 induced neutrophil migration after pretreatment, PKC-δ knocked down” value in data set [8] is “restored the normal level of neutrophil trans endothelial migration”.

For `CN(C)CCCn1cc(C2=C(c3c[nH]c4ccccc34)C(=O)NC2=O)c2ccccc21` [GF10923X], the “restoration of PMN TEM in response to LTB4 by PKC inhibitors (reversal of Bryostatin-1 protection)” value in the data set on HUVECs [3] is “did not restore PMN TEM”.

For the molecule `Cn1c2ccccc2c2c3c(c4c5ccccc5n(CCC#N)c4c21)CNC3=O` [GO-6976], the “restoration of PMN TEM in response to LTB4 by PKC inhibitors (reversal of Bryostatin-1 protection)” value in the data set with HUVECs [3] is listed as “did not restore PMN TEM”.

As to `COc1ccc2c(c1)c(C1=C(c3c[nH]c4ccccc34)C(=O)NC1=O)cn2CCCN(C)C` [Go-6983], the “Bryostatin-1 mediated reduction in migration towards LTB4, effect of PKC inhibitor pretreatment” value with HUVECs [3] (inhibitor 10 or 100 nM, 30 minutes before 100 nM Bryostatin-1) is given as “prevented”. For the same molecule, the “restoration of PMN TEM in response to LTB4 by PKC inhibitors (reversal of Bryostatin-1 protection)” value is “dose dependently restored neutrophil migration” in the data set with HUVECs [3] and “dose dependently reversed” in the data set on HUVECs [3] (listed as G0-6983).

Consider `CC(=O)c1c(O)c(C)c(O)c(Cc2c(O)c3c(c(C(=O)/C=C/c4ccccc4)c2O)OC(C)(C)C=C3)c1O` [Rottlerin], for which the “restoration of PMN TEM in response to LTB4 by PKC inhibitors (reversal of Bryostatin-1 protection)” value in the data set on HUVECs [3] is given as “did not restore PMN TEM”.
